Molecules are shown by their SMILES. Activity calls are given as the source filed them. No cut-off for these calls is given here.

Data on 3 compounds can be found in ChEMBL document CHEMBL1156502, “Stabilized immune modulatory RNA compounds as agonists of Toll-like receptors 7 and 8” (Proc Natl Acad Sci U S A, 2007).

Data set [1] concerns the target T1, Toll-like receptor 8 (Homo sapiens) (UniProt Q9NR97).
T1 sequence (whole entry): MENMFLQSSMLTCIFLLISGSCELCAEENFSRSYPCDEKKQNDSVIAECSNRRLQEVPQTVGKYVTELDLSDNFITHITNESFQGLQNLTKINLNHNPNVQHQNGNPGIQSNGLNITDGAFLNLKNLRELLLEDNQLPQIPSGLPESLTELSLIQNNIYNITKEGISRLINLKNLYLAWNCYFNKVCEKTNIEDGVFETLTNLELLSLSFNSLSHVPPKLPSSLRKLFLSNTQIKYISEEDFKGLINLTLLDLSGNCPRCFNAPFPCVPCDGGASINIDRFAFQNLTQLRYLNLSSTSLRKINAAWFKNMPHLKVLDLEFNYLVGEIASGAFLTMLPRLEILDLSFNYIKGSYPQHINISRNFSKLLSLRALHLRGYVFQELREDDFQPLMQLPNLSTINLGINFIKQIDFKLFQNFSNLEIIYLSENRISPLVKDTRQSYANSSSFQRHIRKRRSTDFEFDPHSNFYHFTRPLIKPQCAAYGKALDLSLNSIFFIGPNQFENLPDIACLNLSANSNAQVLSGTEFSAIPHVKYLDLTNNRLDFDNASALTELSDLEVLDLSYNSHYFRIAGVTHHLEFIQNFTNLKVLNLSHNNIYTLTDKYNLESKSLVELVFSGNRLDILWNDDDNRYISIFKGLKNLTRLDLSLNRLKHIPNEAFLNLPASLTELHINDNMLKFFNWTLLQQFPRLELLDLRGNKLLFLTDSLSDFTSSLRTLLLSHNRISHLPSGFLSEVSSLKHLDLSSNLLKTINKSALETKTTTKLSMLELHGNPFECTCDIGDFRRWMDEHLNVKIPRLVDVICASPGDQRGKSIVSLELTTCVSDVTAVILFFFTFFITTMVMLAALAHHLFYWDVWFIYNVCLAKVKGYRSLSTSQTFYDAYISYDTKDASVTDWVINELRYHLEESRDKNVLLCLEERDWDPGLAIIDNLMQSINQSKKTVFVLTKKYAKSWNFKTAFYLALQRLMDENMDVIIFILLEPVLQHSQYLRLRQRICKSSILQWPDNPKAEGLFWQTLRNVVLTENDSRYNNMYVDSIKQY
Description: Activation of human TLR8 expressed in HEK293 cells assessed as increase in NF-kappaB activation at 100 ug/ml by SEAP assay. It is filed as cell-based.

Data set [2] can be described thus: Stability in 1% human serum assessed as full length product after 10 mins. It is filed as ADME, cell-free. The settings on record: read-out: Stability.
The target in data set [3] is T2, Toll-like receptor 7 (Homo sapiens) (UniProt Q9NYK1).
T2 sequence (whole entry): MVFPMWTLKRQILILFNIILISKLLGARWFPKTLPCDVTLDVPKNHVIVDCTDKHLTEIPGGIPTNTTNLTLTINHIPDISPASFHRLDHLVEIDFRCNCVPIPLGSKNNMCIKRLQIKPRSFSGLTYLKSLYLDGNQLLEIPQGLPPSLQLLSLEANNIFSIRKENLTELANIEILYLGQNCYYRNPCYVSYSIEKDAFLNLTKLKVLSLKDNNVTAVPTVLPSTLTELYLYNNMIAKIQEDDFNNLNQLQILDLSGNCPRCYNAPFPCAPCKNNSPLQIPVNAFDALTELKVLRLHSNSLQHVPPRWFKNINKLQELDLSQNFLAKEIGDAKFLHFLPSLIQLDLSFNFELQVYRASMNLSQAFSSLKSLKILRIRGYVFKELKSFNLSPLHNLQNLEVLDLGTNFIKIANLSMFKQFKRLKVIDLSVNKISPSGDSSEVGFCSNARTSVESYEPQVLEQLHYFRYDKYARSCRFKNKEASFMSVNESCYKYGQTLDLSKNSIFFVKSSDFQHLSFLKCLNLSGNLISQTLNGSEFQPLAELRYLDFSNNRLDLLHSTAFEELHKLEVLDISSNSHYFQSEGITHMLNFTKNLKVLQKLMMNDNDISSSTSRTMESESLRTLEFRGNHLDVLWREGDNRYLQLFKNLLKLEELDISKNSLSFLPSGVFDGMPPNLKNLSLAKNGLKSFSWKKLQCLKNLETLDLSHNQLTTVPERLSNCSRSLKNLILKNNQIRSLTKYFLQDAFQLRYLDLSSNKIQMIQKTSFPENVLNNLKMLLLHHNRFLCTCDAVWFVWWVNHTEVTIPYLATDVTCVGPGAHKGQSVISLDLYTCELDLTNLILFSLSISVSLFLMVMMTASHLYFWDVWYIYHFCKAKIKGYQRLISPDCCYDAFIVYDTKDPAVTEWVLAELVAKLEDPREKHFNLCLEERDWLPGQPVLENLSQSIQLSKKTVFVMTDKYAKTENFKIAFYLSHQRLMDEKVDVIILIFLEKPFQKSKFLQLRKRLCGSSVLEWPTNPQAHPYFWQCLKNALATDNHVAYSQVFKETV
Description: Activation of human TLR7 expressed in HEK293 cells assessed as increase in NF-kappaB activation at 100 ug/ml by SEAP assay. It is filed as cell-based.

In the case of `Nc1nc2c(ncn2[C@@H]2O[C@H](COP(O)(=S)O[C@H]3[C@@H](O)[C@H](n4ccc(=O)[nH]c4=O)O[C@@H]3COP(O)(=S)O[C@H]3[C@@H](O)[C@H](n4ccc(=O)[nH]c4=O)O[C@@H]3COP(O)(=S)O[C@H]3[C@@H](O)[C@H](n4ccc(=O)[nH]c4=O)O[C@@H]3COP(O)(=S)O[C@H]3[C@@H](O)[C@H](n4cnc5c(=O)[nH]c(N)nc54)O[C@@H]3COP(O)(=S)O[C@H]3[C@@H](O)[C@H](n4ccc(=O)[nH]c4=O)O[C@@H]3COP(O)(=S)O[C@H]3[C@@H](O)[C@H](n4ccc(=O)[nH]c4=O)O[C@@H]3COP(O)(=S)O[C@H]3[C@@H](O)[C@H](n4cnc5c(=O)[nH]c(N)nc54)O[C@@H]3COP(O)(=S)O[C@H]3[C@@H](O)[C@H](n4cnc5c(=O)[nH]c(N)nc54)O[C@@H]3COP(O)(=S)O[C@H]3[C@@H](O)[C@H](n4ccc(=O)[nH]c4=O)O[C@@H]3COP(O)(=S)O[C@H]3[C@@H](O)[C@H](n4ccc(=O)[nH]c4=O)O[C@@H]3CO)[C@@H](OP(O)(=S)OCC(O)COP(O)(=S)O[C@H]3[C@@H](O)[C@H](n4cnc5c(=O)[nH]c(N)nc54)O[C@@H]3COP(O)(=S)O[C@H]3[C@@H](O)[C@H](n4ccc(=O)[nH]c4=O)O[C@@H]3COP(O)(=S)O[C@H]3[C@@H](O)[C@H](n4ccc(=O)[nH]c4=O)O[C@@H]3COP(O)(=S)O[C@H]3[C@@H](O)[C@H](n4ccc(=O)[nH]c4=O)O[C@@H]3COP(O)(=S)O[C@H]3[C@@H](O)[C@H](n4cnc5c(=O)[nH]c(N)nc54)O[C@@H]3COP(O)(=S)O[C@H]3[C@@H](O)[C@H](n4ccc(=O)[nH]c4=O)O[C@@H]3COP(O)(=S)O[C@H]3[C@@H](O)[C@H](n4ccc(=O)[nH]c4=O)O[C@@H]3COP(O)(=S)O[C@H]3[C@@H](O)[C@H](n4cnc5c(=O)[nH]c(N)nc54)O[C@@H]3COP(O)(=S)O[C@H]3[C@@H](O)[C@H](n4cnc5c(=O)[nH]c(N)nc54)O[C@@H]3COP(O)(=S)O[C@H]3[C@@H](O)[C@H](n4ccc(=O)[nH]c4=O)O[C@@H]3COP(O)(=S)O[C@H]3[C@@H](O)[C@H](n4ccc(=O)[nH]c4=O)O[C@@H]3CO)[C@H]2O)c(=O)[nH]1` (some centres undefined), in data set [1], the result was Active. Further, in data set [2], the remaining at 10 min was determined as 94%. Moreover, the outcome in data set [3] was inactive.
In the case of `Nc1ccn([C@@H]2O[C@H](COP(O)(=S)O[C@H]3[C@@H](O)[C@H](n4ccc(N)nc4=O)O[C@@H]3COP(O)(=S)O[C@H]3[C@@H](O)[C@H](n4cnc5c(=O)[nH]c(N)nc54)O[C@@H]3COP(O)(=S)O[C@H]3[C@@H](O)[C@H](n4ccc(=O)[nH]c4=O)O[C@@H]3COP(O)(=S)O[C@H]3[C@@H](O)[C@H](n4ccc(N)nc4=O)O[C@@H]3COP(O)(=S)O[C@H]3[C@@H](O)[C@H](n4cnc5c(=O)[nH]c(N)nc54)O[C@@H]3COP(O)(=S)O[C@H]3[C@@H](O)[C@H](n4ccc(=O)[nH]c4=O)O[C@@H]3CO)[C@@H](OP(O)(=S)OC[C@H]3O[C@@H](n4ccc(=O)[nH]c4=O)[C@H](O)[C@@H]3OP(O)(=S)OC[C@H]3O[C@@H](n4ccc(=O)[nH]c4=O)[C@H](O)[C@@H]3OP(O)(=S)OC[C@H]3O[C@@H](n4ccc(=O)[nH]c4=O)[C@H](O)[C@@H]3OP(O)(=S)OC[C@H]3O[C@@H](n4cnc5c(=O)[nH]c(N)nc54)[C@H](O)[C@@H]3OP(O)(=S)OCC(O)COP(O)(=S)O[C@H]3[C@@H](O)[C@H](n4cnc5c(=O)[nH]c(N)nc54)O[C@@H]3COP(O)(=S)O[C@H]3[C@@H](O)[C@H](n4ccc(=O)[nH]c4=O)O[C@@H]3COP(O)(=S)O[C@H]3[C@@H](O)[C@H](n4ccc(=O)[nH]c4=O)O[C@@H]3COP(O)(=S)O[C@H]3[C@@H](O)[C@H](n4ccc(=O)[nH]c4=O)O[C@@H]3COP(O)(=S)O[C@H]3[C@@H](O)[C@H](n4ccc(N)nc4=O)O[C@@H]3COP(O)(=S)O[C@H]3[C@@H](O)[C@H](n4ccc(N)nc4=O)O[C@@H]3COP(O)(=S)O[C@H]3[C@@H](O)[C@H](n4cnc5c(=O)[nH]c(N)nc54)O[C@@H]3COP(O)(=S)O[C@H]3[C@@H](O)[C@H](n4ccc(=O)[nH]c4=O)O[C@@H]3COP(O)(=S)O[C@H]3[C@@H](O)[C@H](n4ccc(N)nc4=O)O[C@@H]3COP(O)(=S)O[C@H]3[C@@H](O)[C@H](n4cnc5c(=O)[nH]c(N)nc54)O[C@@H]3COP(O)(=S)O[C@H]3[C@@H](O)[C@H](n4ccc(=O)[nH]c4=O)O[C@@H]3CO)[C@H]2O)c(=O)n1` (some centres undefined), in data set [1], the result was Active. For the same compound, the remaining at 10 min in data set [2] turned out to be 66%. Further, the result in data set [3] was inactive.
In the same order, the values of `Nc1ccn([C@@H]2O[C@H](COP(O)(=S)O[C@H]3[C@@H](O)[C@H](n4cnc5c(=O)[nH]c(N)nc54)O[C@@H]3COP(O)(=S)O[C@H]3[C@@H](O)[C@H](n4ccc(=O)[nH]c4=O)O[C@@H]3COCCCCCO)[C@@H](OP(O)(=S)OC[C@H]3O[C@@H](n4ccc(=O)[nH]c4=O)[C@H](O)[C@@H]3OP(O)(=S)OC[C@H]3O[C@@H](n4cnc5c(=O)[nH]c(N)nc54)[C@H](O)[C@@H]3OP(O)(=S)OC[C@H]3O[C@@H](n4ccc(N)nc4=O)[C@H](O)[C@@H]3OP(O)(=S)OC[C@H]3O[C@@H](n4ccc(=O)[nH]c4=O)[C@H](O)[C@@H]3OP(O)(=S)OC[C@H]3O[C@@H](n4ccc(=O)[nH]c4=O)[C@H](O)[C@@H]3OP(O)(=S)OC[C@H]3O[C@@H](n4cnc5c(=O)[nH]c(N)nc54)[C@H](O)[C@@H]3OP(O)(=S)OC[C@H]3O[C@@H](n4ccc(=O)[nH]c4=O)[C@H](O)[C@@H]3OP(O)(=S)OC[C@H]3O[C@@H](n4cnc5c(=O)[nH]c(N)nc54)[C@H](O)[C@@H]3OP(O)(=S)OCC(O)COP(O)(=S)O[C@H]3[C@@H](O)[C@H](n4cnc5c(=O)[nH]c(N)nc54)O[C@@H]3COP(O)(=S)O[C@H]3[C@@H](O)[C@H](n4ccc(=O)[nH]c4=O)O[C@@H]3COP(O)(=S)O[C@H]3[C@@H](O)[C@H](n4cnc5c(=O)[nH]c(N)nc54)O[C@@H]3COP(O)(=S)O[C@H]3[C@@H](O)[C@H](n4ccc(=O)[nH]c4=O)O[C@@H]3COP(O)(=S)O[C@H]3[C@@H](O)[C@H](n4ccc(=O)[nH]c4=O)O[C@@H]3COP(O)(=S)O[C@H]3[C@@H](O)[C@H](n4ccc(N)nc4=O)O[C@@H]3COP(O)(=S)O[C@H]3[C@@H](O)[C@H](n4cnc5c(=O)[nH]c(N)nc54)O[C@@H]3COP(O)(=S)O[C@H]3[C@@H](O)[C@H](n4ccc(=O)[nH]c4=O)O[C@@H]3COP(O)(=S)O[C@H]3[C@@H](O)[C@H](n4ccc(N)nc4=O)O[C@@H]3COP(O)(=S)O[C@H]3[C@@H](O)[C@H](n4cnc5c(=O)[nH]c(N)nc54)O[C@@H]3COP(O)(=S)O[C@H]3[C@@H](O)[C@H](n4ccc(=O)[nH]c4=O)O[C@@H]3COCCCCCO)[C@H]2O)c(=O)n1` (some centres undefined) are “Active”, 82% and “inactive”.
